According to the supplement of paper PMC8671470:

Each compound was assayed on SHI-1 (assay: cell viability (% survival relative to DMSO control, bortezomib = 0%); higher = less cytotoxic). Details: 1000 nM; 72 h.
Method in brief: (§1)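 Percent survival figures are means of duplicate wells. They were obtained by CellTiter-Glo luminescence after 10 AML and 5 CML cell lines spent 72 h at 37 °C with 5% CO2 in 384-well plates with compounds at 1, 10, 100, 1000 or 10000 nM. Vehicle was set to 100% and a 10 µM positive control to 0%.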
Work on O=C1O[C@H]([C@@H](O)CO)C(O)=C1O [Vitamin C (ascorbate)] yielded a cell viability of 102%.

Same assay, conditions: 10000 nM; 72 h
In the case of O=C(O)C[C@@]1(O)C[C@@H](CCCCCCc2ccc(Cl)cc2Cl)OC1=O, the cell viability was 96.4%. O=C(NCCCCCCNC(=O)ONC1=CCCCC1)ONC1=CCCCC1 was tested, and the cell viability was 97.3%. O=C(C1CC1)N1CC[C@@H](C=C2NNC(=O)N2c2ccc(-c3ccc4occc4c3)cc2)C1 gave a cell viability of 79.6%. CCCCCCCCCCCC(=O)c1c(O)c(C(=O)CCCCCCCCCCC)c(O)c(C2CC(c3ccc(O)cc3)Oc3cc(O)ccc32)c1O (stereo not given) gave a cell viability of 104%. Compound NC(=O)c1cccc(-c2cccc(OC(=O)NC3CCCCC3)c2)c1 [URB-597] has a cell viability of 110%. Compound O=C1O[C@H]([C@@H](O)CO)C(O)=C1O [Vitamin C (ascorbate)] has a cell viability of 114%.

What follows are compounds tested on NOMO-1 in the same assay as above. Details: 1 nM; 72 h.
Method in brief: as §1
O=C(O)C[C@@]1(O)C[C@@H](CCCCCCc2ccc(Cl)cc2Cl)OC1=O showed a cell viability of 101%. Compound O=C(NCCCCCCNC(=O)ONC1=CCCCC1)ONC1=CCCCC1 has a cell viability of 98.9%. O=C(C1CC1)N1CC[C@@H](C=C2NNC(=O)N2c2ccc(-c3ccc4occc4c3)cc2)C1 gave a cell viability of 98.1%. For CCCCCCCCCCCC(=O)c1c(O)c(C(=O)CCCCCCCCCCC)c(O)c(C2CC(c3ccc(O)cc3)Oc3cc(O)ccc32)c1O (stereo not given), the cell viability was 108%. With NC(=O)c1cccc(-c2cccc(OC(=O)NC3CCCCC3)c2)c1 [URB-597] the cell viability was 101%. With O=C1O[C@H]([C@@H](O)CO)C(O)=C1O [Vitamin C (ascorbate)] the cell viability was 95.5%.

Same assay, conditions: 10 nM; 72 h
O=C(O)C[C@@]1(O)C[C@@H](CCCCCCc2ccc(Cl)cc2Cl)OC1=O showed a cell viability of 103%. With O=C(NCCCCCCNC(=O)ONC1=CCCCC1)ONC1=CCCCC1 the cell viability was 117%. Work on O=C(C1CC1)N1CC[C@@H](C=C2NNC(=O)N2c2ccc(-c3ccc4occc4c3)cc2)C1 yielded a cell viability of 98.6%. In the case of CCCCCCCCCCCC(=O)c1c(O)c(C(=O)CCCCCCCCCCC)c(O)c(C2CC(c3ccc(O)cc3)Oc3cc(O)ccc32)c1O (stereo not given), the cell viability was 118%. Work on NC(=O)c1cccc(-c2cccc(OC(=O)NC3CCCCC3)c2)c1 [URB-597] yielded a cell viability of 103%. In the case of O=C1O[C@H]([C@@H](O)CO)C(O)=C1O [Vitamin C (ascorbate)], the cell viability was 100%.

Same assay, conditions: 100 nM; 72 h
O=C(O)C[C@@]1(O)C[C@@H](CCCCCCc2ccc(Cl)cc2Cl)OC1=O was tested, and the cell viability was 97.4%. With O=C(NCCCCCCNC(=O)ONC1=CCCCC1)ONC1=CCCCC1 the cell viability was 112%. For O=C(C1CC1)N1CC[C@@H](C=C2NNC(=O)N2c2ccc(-c3ccc4occc4c3)cc2)C1, the cell viability was 107%. CCCCCCCCCCCC(=O)c1c(O)c(C(=O)CCCCCCCCCCC)c(O)c(C2CC(c3ccc(O)cc3)Oc3cc(O)ccc32)c1O (stereo not given) showed a cell viability of 110%. NC(=O)c1cccc(-c2cccc(OC(=O)NC3CCCCC3)c2)c1 [URB-597] gave a cell viability of 105%. For O=C1O[C@H]([C@@H](O)CO)C(O)=C1O [Vitamin C (ascorbate)], the cell viability was 110%.

Same assay, conditions: 1000 nM; 72 h
In the case of O=C(O)C[C@@]1(O)C[C@@H](CCCCCCc2ccc(Cl)cc2Cl)OC1=O, the cell viability was 98.8%. In the case of O=C(NCCCCCCNC(=O)ONC1=CCCCC1)ONC1=CCCCC1, the cell viability was 112%. Compound O=C(C1CC1)N1CC[C@@H](C=C2NNC(=O)N2c2ccc(-c3ccc4occc4c3)cc2)C1 has a cell viability of 99.4%. Compound CCCCCCCCCCCC(=O)c1c(O)c(C(=O)CCCCCCCCCCC)c(O)c(C2CC(c3ccc(O)cc3)Oc3cc(O)ccc32)c1O (stereo not given) has a cell viability of 111%. With NC(=O)c1cccc(-c2cccc(OC(=O)NC3CCCCC3)c2)c1 [URB-597] the cell viability was 96.1%. O=C1O[C@H]([C@@H](O)CO)C(O)=C1O [Vitamin C (ascorbate)] gave a cell viability of 97.8%.

Same assay, conditions: 10000 nM; 72 h
O=C(O)C[C@@]1(O)C[C@@H](CCCCCCc2ccc(Cl)cc2Cl)OC1=O showed a cell viability of 99.5%. O=C(NCCCCCCNC(=O)ONC1=CCCCC1)ONC1=CCCCC1 gave a cell viability of 102%. O=C(C1CC1)N1CC[C@@H](C=C2NNC(=O)N2c2ccc(-c3ccc4occc4c3)cc2)C1 was tested, and the cell viability was 89.9%. CCCCCCCCCCCC(=O)c1c(O)c(C(=O)CCCCCCCCCCC)c(O)c(C2CC(c3ccc(O)cc3)Oc3cc(O)ccc32)c1O (stereo not given) gave a cell viability of 96.7%. In the case of NC(=O)c1cccc(-c2cccc(OC(=O)NC3CCCCC3)c2)c1 [URB-597], the cell viability was 110%. With O=C1O[C@H]([C@@H](O)CO)C(O)=C1O [Vitamin C (ascorbate)] the cell viability was 102%.

The compounds below were run on MOLM-13 in the same assay as above. Details: 1 nM; 72 h.
Method in brief: as §1
O=C(O)C[C@@]1(O)C[C@@H](CCCCCCc2ccc(Cl)cc2Cl)OC1=O was tested, and the cell viability was 102%. With O=C(NCCCCCCNC(=O)ONC1=CCCCC1)ONC1=CCCCC1 the cell viability was 118%. With O=C(C1CC1)N1CC[C@@H](C=C2NNC(=O)N2c2ccc(-c3ccc4occc4c3)cc2)C1 the cell viability was 101%. In the case of CCCCCCCCCCCC(=O)c1c(O)c(C(=O)CCCCCCCCCCC)c(O)c(C2CC(c3ccc(O)cc3)Oc3cc(O)ccc32)c1O (stereo not given), the cell viability was 101%. NC(=O)c1cccc(-c2cccc(OC(=O)NC3CCCCC3)c2)c1 [URB-597] showed a cell viability of 99.9%. Work on O=C1O[C@H]([C@@H](O)CO)C(O)=C1O [Vitamin C (ascorbate)] yielded a cell viability of 101%.

Same assay, conditions: 10 nM; 72 h
In the case of O=C(O)C[C@@]1(O)C[C@@H](CCCCCCc2ccc(Cl)cc2Cl)OC1=O, the cell viability was 103%. In the case of O=C(NCCCCCCNC(=O)ONC1=CCCCC1)ONC1=CCCCC1, the cell viability was 97%. Work on O=C(C1CC1)N1CC[C@@H](C=C2NNC(=O)N2c2ccc(-c3ccc4occc4c3)cc2)C1 yielded a cell viability of 77.4%. Work on CCCCCCCCCCCC(=O)c1c(O)c(C(=O)CCCCCCCCCCC)c(O)c(C2CC(c3ccc(O)cc3)Oc3cc(O)ccc32)c1O (stereo not given) yielded a cell viability of 119%. NC(=O)c1cccc(-c2cccc(OC(=O)NC3CCCCC3)c2)c1 [URB-597] was tested, and the cell viability was 93.7%. With O=C1O[C@H]([C@@H](O)CO)C(O)=C1O [Vitamin C (ascorbate)] the cell viability was 103%.

Same assay, conditions: 100 nM; 72 h
In the case of O=C(O)C[C@@]1(O)C[C@@H](CCCCCCc2ccc(Cl)cc2Cl)OC1=O, the cell viability was 110%. With O=C(NCCCCCCNC(=O)ONC1=CCCCC1)ONC1=CCCCC1 the cell viability was 109%. With O=C(C1CC1)N1CC[C@@H](C=C2NNC(=O)N2c2ccc(-c3ccc4occc4c3)cc2)C1 the cell viability was 75.1%. CCCCCCCCCCCC(=O)c1c(O)c(C(=O)CCCCCCCCCCC)c(O)c(C2CC(c3ccc(O)cc3)Oc3cc(O)ccc32)c1O (stereo not given) showed a cell viability of 89.5%. In the case of NC(=O)c1cccc(-c2cccc(OC(=O)NC3CCCCC3)c2)c1 [URB-597], the cell viability was 105%. O=C1O[C@H]([C@@H](O)CO)C(O)=C1O [Vitamin C (ascorbate)] was tested, and the cell viability was 91.6%.

Same assay, conditions: 1000 nM; 72 h
In the case of O=C(O)C[C@@]1(O)C[C@@H](CCCCCCc2ccc(Cl)cc2Cl)OC1=O, the cell viability was 103%. O=C(NCCCCCCNC(=O)ONC1=CCCCC1)ONC1=CCCCC1 gave a cell viability of 98.7%. With O=C(C1CC1)N1CC[C@@H](C=C2NNC(=O)N2c2ccc(-c3ccc4occc4c3)cc2)C1 the cell viability was 53.2%. With CCCCCCCCCCCC(=O)c1c(O)c(C(=O)CCCCCCCCCCC)c(O)c(C2CC(c3ccc(O)cc3)Oc3cc(O)ccc32)c1O (stereo not given) the cell viability was 99.1%. For NC(=O)c1cccc(-c2cccc(OC(=O)NC3CCCCC3)c2)c1 [URB-597], the cell viability was 93.8%. In the case of O=C1O[C@H]([C@@H](O)CO)C(O)=C1O [Vitamin C (ascorbate)], the cell viability was 94.2%.

Same assay, conditions: 10000 nM; 72 h
With O=C(O)C[C@@]1(O)C[C@@H](CCCCCCc2ccc(Cl)cc2Cl)OC1=O the cell viability was 110%. In the case of O=C(NCCCCCCNC(=O)ONC1=CCCCC1)ONC1=CCCCC1, the cell viability was 86%. For O=C(C1CC1)N1CC[C@@H](C=C2NNC(=O)N2c2ccc(-c3ccc4occc4c3)cc2)C1, the cell viability was 44.7%. CCCCCCCCCCCC(=O)c1c(O)c(C(=O)CCCCCCCCCCC)c(O)c(C2CC(c3ccc(O)cc3)Oc3cc(O)ccc32)c1O (stereo not given) was tested, and the cell viability was 82.9%.
